US20110082410A1 (priority 2009, published 2011)

How the values were obtained:
hair follicle = assay: Pulsed PDT for removal of unwanted hair with the photosensitizer methylene blue: pain during irradiation; settings: for PAIN: 665 nm
[1] = local anesthesia: infiltrating, spraying or topical solution for transdermal delivery; cited from earlier work
[2] = test system: superficial basal cell carcinomas; settings: low irradiance of range 10-50 mW/cm^2; cited from earlier work
[3] = topical, compared to ALA; cited from earlier work

For `CN(C)c1ccc2nc3ccc(=[N+](C)C)cc-3sc2c1` [methylene blue], the PAIN (hair follicle; 5 s CW irradiation, 10 W/cm^2) was “very painful”, the “Effectiveness of pulsed PDT for removal of unwanted hair” value (hair follicle; pulsed radiation) was “effective without pain” and the PAIN (hair follicle; trial 1: 2 pulses, pulse on 2.5 s, pulse off 0.5 s, 0.33 Hz, 50 J/cm^2, 10 W/cm^2) was “Very high to unbearable”. For the same compound, the PAIN (hair follicle; trial 2: 5 pulses, pulse on 1 s, pulse off 0.5 s, 0.67 Hz, 50 J/cm^2, 10 W/cm^2) was “High”, the PAIN (hair follicle; trial 3: 10 pulses, pulse on 0.5 s, pulse off 0.5 s, 1.00 Hz, 50 J/cm^2, 10 W/cm^2) was “Intermediate to small” and the PAIN (hair follicle; trial 4: 14 pulses, pulse on 0.35 s, pulse off 0.5 s, 1.18 Hz, 50 J/cm^2, 10 W/cm^2) was “None”. For the same compound, the PAIN (hair follicle; trial 5: 14 pulses, pulse on 0.35 s, pulse off 0.1 s, 2.22 Hz, 50 J/cm^2, 10 W/cm^2) was “None”.
For `CCN(CC)CC(=O)Nc1c(C)cccc1C` [lidocaine], the “Improvement of PDT-associated discomfort and pain” value [1] is given as “not produced any significant improvement”.
In the case of `NCC(=O)CCC(=O)O` [delta-ALA, δ-Aminolevulinic Acid], the “Pain induced by PDT treatment” value [2] is listed as “no significant pain was reported”.
For `COC(=O)CCC(=O)CN` [methyl-ester-ALA], the Pain during illumination [3] is given as “significantly less pain compared to ALA”.
